pIC50: −log10 of the molar value. Active and inactive are the calls of the source. The calls are words filed in the database; no cut-off is given here.
Columns and labels:
[1] = target: T1, ATP-dependent translocase ABCB1 (Homo sapiens, UniProt P08183); test: Inhibition of human ABCB1 expressed in mouse L5178Y cells using rhodamine 123 as substrate assessed as ratio of fluorescent intensity in ABCB1 expressing L5178Y cells to wild type L5178Y cells at 10 uM after 20 mins by flow cytometry; format: cell-based
T1 sequence (P08183 whole entry): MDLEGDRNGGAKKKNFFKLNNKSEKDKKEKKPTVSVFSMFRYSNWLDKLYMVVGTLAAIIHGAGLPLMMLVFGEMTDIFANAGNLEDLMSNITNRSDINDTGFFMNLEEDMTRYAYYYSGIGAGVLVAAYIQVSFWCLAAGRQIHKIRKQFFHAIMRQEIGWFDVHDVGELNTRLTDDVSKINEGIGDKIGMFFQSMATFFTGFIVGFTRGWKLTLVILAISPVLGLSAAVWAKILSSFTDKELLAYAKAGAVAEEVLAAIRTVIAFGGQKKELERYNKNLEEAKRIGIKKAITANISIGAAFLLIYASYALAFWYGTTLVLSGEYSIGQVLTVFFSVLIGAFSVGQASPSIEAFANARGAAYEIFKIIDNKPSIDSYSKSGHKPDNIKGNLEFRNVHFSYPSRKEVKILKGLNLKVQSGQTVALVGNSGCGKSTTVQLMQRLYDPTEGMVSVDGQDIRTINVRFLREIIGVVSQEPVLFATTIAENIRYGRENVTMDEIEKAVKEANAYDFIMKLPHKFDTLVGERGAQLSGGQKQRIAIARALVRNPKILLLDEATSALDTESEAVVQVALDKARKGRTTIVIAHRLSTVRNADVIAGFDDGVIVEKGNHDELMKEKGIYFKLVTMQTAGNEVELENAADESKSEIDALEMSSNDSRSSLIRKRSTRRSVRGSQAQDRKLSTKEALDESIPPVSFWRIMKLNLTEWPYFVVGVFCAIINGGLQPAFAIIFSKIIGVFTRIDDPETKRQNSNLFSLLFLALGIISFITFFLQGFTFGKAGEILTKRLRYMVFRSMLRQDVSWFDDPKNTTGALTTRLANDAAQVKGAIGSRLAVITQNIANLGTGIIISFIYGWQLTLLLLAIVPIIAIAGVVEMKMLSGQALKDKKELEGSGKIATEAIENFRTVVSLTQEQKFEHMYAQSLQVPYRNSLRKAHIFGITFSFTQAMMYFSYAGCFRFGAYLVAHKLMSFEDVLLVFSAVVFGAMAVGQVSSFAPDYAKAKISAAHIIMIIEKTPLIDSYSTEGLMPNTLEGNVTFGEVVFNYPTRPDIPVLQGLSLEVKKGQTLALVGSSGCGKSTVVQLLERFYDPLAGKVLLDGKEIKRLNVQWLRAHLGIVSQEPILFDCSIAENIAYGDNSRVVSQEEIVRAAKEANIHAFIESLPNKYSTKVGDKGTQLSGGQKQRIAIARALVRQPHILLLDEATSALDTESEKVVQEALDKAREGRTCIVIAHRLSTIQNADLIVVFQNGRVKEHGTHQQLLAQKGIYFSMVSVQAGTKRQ

[2] = target: T1, ATP-dependent translocase ABCB1; test: Inhibition of human ABCB1 expressed in mouse L5178Y cells using rhodamine 123 as substrate assessed as ratio of fluorescent intensity in ABCB1 expressing L5178Y cells to wild type L5178Y cells at 1 uM after 20 mins by flow cytometry; format: cell-based
L5178Y [3] = test: Cytotoxicity against wild type mouse L5178Y cells after 48 hrs by MTT assay; format: cell-based
[4] = target: T1, ATP-dependent translocase ABCB1; test: Ratio of verapamil to compound for inhibition of human ABCB1 expressed in mouse L5178Y cells using rhodamine 123 as substrate assessed as ratio of fluorescent intensity in ABCB1 expressing L5178Y cells to wild type L5178Y cells at 1 to 10 uM after 20 mins by flow cytometry; format: cell-based
L5178Y [5] = test: Cytotoxicity against wild type mouse L5178Y cells by MTT assay; format: cell-based
L5178Y [6] = test: Cytotoxicity against mouse L5178Y cells expressing human ABCB1 by MTT assay; format: ADME, cell-based
L5178Y [7] = test: Cytotoxicity against mouse L5178Y cells expressing human ABCB1 after 48 hrs by MTT assay; format: ADME, cell-based
A2780cisR = test: Induction of ABCB1/2 expression in human A2780cisR cells at 10 uM after 72 hrs by Western blot analysis; format: functional, cell-based
Homo sapiens [8] = organism: Homo sapiens; test: Induction of ABCB1 expression in human EPG85-257RDB cells at 10 uM after 72 hrs by Western blot analysis in presence of daunorubicin; format: functional, cell-based
EPG85-257P [9] = test: Induction of ABCB1 expression in human EPG85-257P cells at 10 uM after 72 hrs by Western blot analysis; format: functional, cell-based
Homo sapiens [10] = organism: Homo sapiens; test: Induction of ABCB1 expression in human EPG85-257RDB cells at 10 uM after 72 hrs by Western blot analysis; format: functional, cell-based
EPG85-257P [11] = test: Induction of ABCB1 expression in human EPG85-257P cells at 10 uM after 72 hrs by Western blot analysis in presence of daunorubicin; format: functional, cell-based

Row | Ratio [1] | Ratio [2] | Structure (SMILES) | other results
1 | 4.98 | 1.46 | COc1ccc(CCN(C)CCCC(C#N)(c2ccc(OC)c(OC)c2)C(C)C)cc1OC (stereo not drawn) [VERAPAMIL] | –
2 | 12.77 | 3.42 | CCOC(=O)C1=CN(Cc2ccccc2)c2ccccc2C1c1ccc(OC)c(OC)c1 (stereo not drawn) | Activity (L5178Y [3]): Non-toxic; Ratio [4]: 2.5; pIC50 (L5178Y [5]): < 3.80; pIC50 (L5178Y [6]): < 3.80; Activity (L5178Y [7]): Non-toxic
3 | 13.66 | 2.55 | CCOC(=O)C1=CN(Cc2ccc(OC)cc2)c2ccccc2C1c1ccc(OC)cc1 (stereo not drawn) | –
4 | 10.34 | 2.03 | CCOC(=O)C1=CN(Cc2ccc(OC)cc2)c2ccccc2C1c1cccc(OC)c1 (stereo not drawn) | –
5 | 9.95 | 2.23 | CCOC(=O)C1=CN(Cc2cccc(OC)c2)c2ccccc2C1c1ccc(OC)cc1 (stereo not drawn) | –
6 | 10.5 | 2.96 | CCOC(=O)C1=CN(Cc2ccccc2)c2ccccc2C1c1cc(OC)cc(OC)c1 (stereo not drawn) | –
7 | 4.72 | 1.48 | CCOC(=O)C1=CN(Cc2ccccc2)c2ccccc2C1c1ccccc1 (stereo not drawn) | –
8 | 15.84 | 2.41 | CCOC(=O)C1=CN(Cc2ccc(OC)cc2)c2ccccc2C1c1ccc(OC)c(OC)c1 (stereo not drawn) | –
9 | 13.11 | 2.71 | CCOC(=O)C1=CN(Cc2cccc(OC)c2)c2ccccc2C1c1cc(OC)cc(OC)c1 (stereo not drawn) | –
10 | 9.68 | 2.26 | CCOC(=O)C1=CN(Cc2cccc(OC)c2)c2ccccc2C1c1cccc(OC)c1 (stereo not drawn) | –
11 | 13.36 | 3.63 | CCOC(=O)C1=CN(Cc2ccc(OC)cc2)c2ccccc2C1c1cc(OC)cc(OC)c1 (stereo not drawn) | –
12 | 15.86 | 2.98 | CCOC(=O)C1=CN(Cc2cccc(OC)c2)c2ccccc2C1c1ccc(OC)c(OC)c1 (stereo not drawn) | Activity (L5178Y [3]): Non-toxic; Activity (A2780cisR): inactive; Activity (Homo sapiens [8]): inactive; Activity (EPG85-257P [9]): inactive; pIC50 (L5178Y [5]): < 3.80; Activity (Homo sapiens [10]): inactive; Activity (EPG85-257P [11]): inactive; pIC50 (L5178Y [6]): < 3.80; Activity (L5178Y [7]): Non-toxic
